Read-outs that look alike come from different tables or passages of the source.
Experiments:
Ag hmg AChE = target: T1, Ag hmg AChE (Anopheles gambiae, UniProt Q869C3); assay: Ellman AChE inhibition assay, Anopheles gambiae homogenate (Ag hmg); assay type: biochemical; conditions: for IC50: pH 7.8, 10 min preincubation; for IC50 ratio (hAChE/Ag hmg): selectivity, values in parenthesis
T1 construct: To prepare the Ag homogenate (Ag hmg) 10 Anopheles gambiae mosquitoes were combined; from tissue; host or cells: whole Anopheles gambiae mosquitoes, crude homogenate supernatant

Md hmg AChE = target: T2, Md hmg AChE (Musca domestica, UniProt Q7YWJ9)
T2 construct: Comparison of Ag homogenate and Md head; host or cells: housefly head homogenate

Ag ace-1S [1] = target: T3, Ag ace-1S (Anopheles gambiae, UniProt Q869C3); assay: biochemical
T3 construct: encoding the entire wild type AgAChE protein (ace1, 737 amino acids); made in house; host or cells: Drosophila S2 cells (stably transfected, pMT/V5-His vector), clarified cell lysate

Anopheles gambiae = assay: Live mosquito contact toxicity, WHO filter paper assay; assay type: in vivo; conditions: for Live Mosquito Contact Toxicity MC for 100% lethality at 24 hr: 1 hr exposure to treated filter paper
hAChE = target: T4, hAChE (Homo sapiens, UniProt P22303); assay: Ellman AChE inhibition assay, recombinant hAChE; assay type: biochemical
T4 construct: purchased Sigma C1682

bovine AChE = target: T5, bovine AChE (Bos taurus, UniProt P23795); conditions: read-out: potency at bovine AChE; Kohn 1965; cited from earlier work
T5 sequence (P23795 31-613): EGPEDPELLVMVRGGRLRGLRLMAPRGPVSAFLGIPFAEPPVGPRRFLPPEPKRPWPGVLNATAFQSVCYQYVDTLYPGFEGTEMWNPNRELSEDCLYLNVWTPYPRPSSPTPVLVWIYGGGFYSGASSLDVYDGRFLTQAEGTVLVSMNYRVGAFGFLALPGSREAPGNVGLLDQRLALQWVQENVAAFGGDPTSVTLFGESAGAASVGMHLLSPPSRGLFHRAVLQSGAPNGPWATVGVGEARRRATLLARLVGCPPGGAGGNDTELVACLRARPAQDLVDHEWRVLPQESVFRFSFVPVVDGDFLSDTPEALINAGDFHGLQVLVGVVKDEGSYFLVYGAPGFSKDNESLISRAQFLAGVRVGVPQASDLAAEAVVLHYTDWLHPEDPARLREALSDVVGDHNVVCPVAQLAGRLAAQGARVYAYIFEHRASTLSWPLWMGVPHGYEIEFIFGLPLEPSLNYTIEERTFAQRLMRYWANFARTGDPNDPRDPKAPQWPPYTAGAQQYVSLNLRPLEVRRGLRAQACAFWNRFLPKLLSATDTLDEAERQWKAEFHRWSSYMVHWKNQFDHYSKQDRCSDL

Ag ace-1S [2] = assay: biochemical; set-up: species or system Anopheles gambiae; conditions: selectivity, values in parenthesis
[3] = WT Anopheles gambiae homogenate, read-out: Ag WT hmg IC50
[4] = Musca domestica head homogenate; data from Metcalf / Kolbezen; read-out: Md WT hmg IC50; cited from earlier work
[5] = pH 7.8, 10 min preincubation, read-out: hAChE recomb. IC50
[6] = read-out: Md WT hmg IC50; Musca domestica head homogenate; data from Metcalf / Kolbezen; cited from earlier work
[7] = Ag WT hmg IC50, WT Anopheles gambiae homogenate

T3 sequence (Q869C3 39-737): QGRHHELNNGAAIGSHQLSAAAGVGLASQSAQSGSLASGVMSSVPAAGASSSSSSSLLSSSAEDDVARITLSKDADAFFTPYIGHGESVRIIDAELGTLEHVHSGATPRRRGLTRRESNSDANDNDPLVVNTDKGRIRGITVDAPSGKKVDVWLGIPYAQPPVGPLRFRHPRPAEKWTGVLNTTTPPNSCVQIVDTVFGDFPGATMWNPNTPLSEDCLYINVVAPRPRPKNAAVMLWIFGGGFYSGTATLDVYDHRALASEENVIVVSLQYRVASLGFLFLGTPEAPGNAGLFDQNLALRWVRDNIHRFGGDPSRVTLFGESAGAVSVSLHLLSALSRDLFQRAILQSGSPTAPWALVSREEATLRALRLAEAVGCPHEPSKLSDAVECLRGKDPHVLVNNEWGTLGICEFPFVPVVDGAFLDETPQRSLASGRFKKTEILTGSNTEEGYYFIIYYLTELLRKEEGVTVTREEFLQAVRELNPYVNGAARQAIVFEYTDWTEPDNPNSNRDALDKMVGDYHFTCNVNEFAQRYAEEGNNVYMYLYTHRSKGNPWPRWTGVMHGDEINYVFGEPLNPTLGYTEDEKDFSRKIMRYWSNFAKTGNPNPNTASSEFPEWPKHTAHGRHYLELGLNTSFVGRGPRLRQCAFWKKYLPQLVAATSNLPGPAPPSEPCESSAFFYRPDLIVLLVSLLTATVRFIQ
T1 sequence (Q869C3 39-737): as above
T4 sequence (P22303 32-614): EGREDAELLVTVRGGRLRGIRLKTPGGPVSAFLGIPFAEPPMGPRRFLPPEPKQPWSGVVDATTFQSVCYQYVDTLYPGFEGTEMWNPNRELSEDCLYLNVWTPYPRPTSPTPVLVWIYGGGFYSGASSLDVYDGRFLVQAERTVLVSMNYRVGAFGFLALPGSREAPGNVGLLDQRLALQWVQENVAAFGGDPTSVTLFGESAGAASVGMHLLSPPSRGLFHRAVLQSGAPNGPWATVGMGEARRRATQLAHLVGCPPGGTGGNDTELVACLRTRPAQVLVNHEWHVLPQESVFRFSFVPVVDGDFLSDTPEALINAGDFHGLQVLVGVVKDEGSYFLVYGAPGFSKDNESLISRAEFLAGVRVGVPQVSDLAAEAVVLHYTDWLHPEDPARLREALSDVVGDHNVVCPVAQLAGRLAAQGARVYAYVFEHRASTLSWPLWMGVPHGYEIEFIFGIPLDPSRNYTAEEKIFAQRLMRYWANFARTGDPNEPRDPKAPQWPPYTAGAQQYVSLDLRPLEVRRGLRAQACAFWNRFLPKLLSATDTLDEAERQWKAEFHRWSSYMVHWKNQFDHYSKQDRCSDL
T2 sequence (Q7YWJ9 1-692): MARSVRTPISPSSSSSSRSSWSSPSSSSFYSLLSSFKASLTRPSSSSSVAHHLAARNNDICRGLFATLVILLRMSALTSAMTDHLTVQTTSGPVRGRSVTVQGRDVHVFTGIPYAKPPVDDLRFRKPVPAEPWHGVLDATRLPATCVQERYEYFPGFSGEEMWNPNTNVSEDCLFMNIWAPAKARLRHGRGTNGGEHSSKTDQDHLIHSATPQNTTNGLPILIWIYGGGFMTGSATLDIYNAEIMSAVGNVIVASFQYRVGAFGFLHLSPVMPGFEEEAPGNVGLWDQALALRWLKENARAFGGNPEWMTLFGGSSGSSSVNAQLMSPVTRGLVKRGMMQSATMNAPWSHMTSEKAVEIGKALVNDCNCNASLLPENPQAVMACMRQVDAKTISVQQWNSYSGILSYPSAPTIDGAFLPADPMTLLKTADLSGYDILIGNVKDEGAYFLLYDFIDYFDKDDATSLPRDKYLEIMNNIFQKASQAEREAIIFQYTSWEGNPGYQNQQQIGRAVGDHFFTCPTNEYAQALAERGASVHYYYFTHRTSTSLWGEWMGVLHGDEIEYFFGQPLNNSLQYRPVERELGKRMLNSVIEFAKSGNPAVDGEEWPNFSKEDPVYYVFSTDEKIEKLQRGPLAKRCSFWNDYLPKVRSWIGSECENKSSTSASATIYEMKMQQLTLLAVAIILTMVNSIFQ

For `CNC(=O)O/N=C/C(C)(C)SC` [Aldicarb, reference compound], the IC50 (Ag hmg AChE; [3]) is listed as 4620 nM, the IC50 (Md hmg AChE; [4]) is listed as 84000 nM and the IC50 (Ag ace-1S [1]) is listed as 10900 nM. The “Live Mosquito Contact Toxicity MC for 100% lethality at 24 hr” value (Anopheles gambiae) was 0.55 ug/cm^2.
For `CNC(=O)Oc1cccc2ccccc12` [Carbaryl, reference compound], the IC50 (Ag hmg AChE; [3]) is listed as 262 nM, the IC50 (Md hmg AChE; [4]) is listed as 900 nM and the IC50 (Ag ace-1S [1]) is listed as 515 nM. For the same molecule, the IC50 (hAChE; [5]) was 2840 nM.
For `CNC(=O)Oc1cccc(C(C)(C)C)c1` [Compound 1a, 3-tert-butylphenyl-N-methyl carbamate], the IC50 (bovine AChE) is listed as 530 nM, the IC50 (Md hmg AChE; [6]) is listed as 400 nM and the IC50 (hAChE) is listed as 265 nM. The “Live Mosquito Contact Toxicity MC for 100% lethality at 24 hr” value (Anopheles gambiae) was 1.1 ug/cm^2 and the “Live Mosquito Contact Toxicity MC for 100% lethality at 24 hr, with synergist” value (Anopheles gambiae; 1 hr exposure, piperonyl butoxide 0.3 mg/mL) was 0.28 ug/cm^2.
In the case of `CNC(=O)Oc1cccc([Si](C)(C)C)c1` [Compound 2a, N-methyl 3-(trimethylsilyl)phenyl carbamate], the IC50 (Ag hmg AChE; [7]) is reported as 5.6 nM, the “difference in potency Ag hmg AChE vs Md hmg AChE” value (Ag hmg AChE; more potent at Ag hmg AChE) is reported as 100 fold and the “IC50 ratio (hAChE/Ag hmg)” value (Ag hmg AChE) is reported as “(95x)”. For the same molecule, the IC50 (Md hmg AChE; [6]) was 700 nM, the “IC50 ratio (hAChE/Ag ace-1S)” value (Ag ace-1S [2]) was “(130x)” and the IC50 (Ag ace-1S [1]) was 4.1 nM. For the same molecule, the IC50 (hAChE) was 532 nM and the “Live Mosquito Contact Toxicity MC for 100% lethality at 24 hr” value (Anopheles gambiae) was 5.6 ug/cm^2.
In the case of `CNC(=O)Oc1cccc(C(C)C)c1` [Compound 4a], the IC50 (Ag hmg AChE; [7]) is listed as 27 nM, the IC50 (Md hmg AChE; [6]) is listed as 340 nM and the IC50 (Ag ace-1S [1]) is listed as 12 nM.
For `CCc1cccc(OC(=O)NC)c1` [Compound 5a], the IC50 (Ag hmg AChE; [7]) is listed as 630 nM, the “IC50 ratio (hAChE/Ag hmg)” value (Ag hmg AChE) is listed as “(4.0) x” and the IC50 (Md hmg AChE; [6]) is listed as 13000 nM. The “IC50 ratio (hAChE/Ag ace-1S)” value (Ag ace-1S [2]) was “(6.4x)”, the IC50 (Ag ace-1S [1]) was 392 nM and the IC50 (hAChE) was 2500 nM. For the same molecule, the “Live Mosquito Contact Toxicity MC for 100% lethality at 24 hr” value (Anopheles gambiae) was 11 ug/cm^2.
In the case of `CNC(=O)Oc1cccc(Cl)c1` [Compound 7a], the IC50 (Ag hmg AChE; [7]) is given as 26000 nM, the “IC50 ratio (hAChE/Ag hmg)” value (Ag hmg AChE) is given as “(3.3x)” and the IC50 (Md hmg AChE; [6]) is given as 50000 nM. The “IC50 ratio (hAChE/Ag ace-1S)” value (Ag ace-1S [2]) was “(5.2x)”, the IC50 (Ag ace-1S [1]) was 16600 nM and the IC50 (hAChE) was 86000 nM. For the same molecule, the “Live Mosquito Contact Toxicity MC for 100% lethality at 24 hr” value (Anopheles gambiae) was 56 ug/cm^2.
For `CNC(=O)Oc1cccc(Br)c1` [Compound 8a], the IC50 (Ag hmg AChE; [7]) is given as 24000 nM, the “IC50 ratio (hAChE/Ag hmg)” value (Ag hmg AChE) is given as “(>4.2x)” and the IC50 (Md hmg AChE; [6]) is given as 13000 nM. For the same molecule, the “IC50 ratio (hAChE/Ag ace-1S)” value (Ag ace-1S [2]) was “(>13x)”, the IC50 (Ag ace-1S [1]) was 7610 nM and the IC50 (hAChE) was over 100000 nM. For the same molecule, the “Live Mosquito Contact Toxicity MC for 100% lethality at 24 hr” value (Anopheles gambiae) was 11 ug/cm^2.
In the case of `CNC(=O)Oc1cccc(I)c1` [Compound 9a], the IC50 (Ag hmg AChE; [7]) is listed as 5170 nM, the “IC50 ratio (hAChE/Ag hmg)” value (Ag hmg AChE) is listed as “(13x)” and the IC50 (Md hmg AChE; [6]) is listed as 7000 nM. For the same molecule, the “IC50 ratio (hAChE/Ag ace-1S)” value (Ag ace-1S [2]) was “(37x)”, the IC50 (Ag ace-1S [1]) was 1820 nM and the IC50 (hAChE) was 67200 nM. The “Live Mosquito Contact Toxicity MC for 100% lethality at 24 hr” value (Anopheles gambiae) was 11 ug/cm^2.
For `CNC(=O)Oc1cc(C)cc(C)c1` [Compound 10a], the IC50 (Ag hmg AChE; [7]) is listed as 2780 nM, the “IC50 ratio (hAChE/Ag hmg)” value (Ag hmg AChE) is listed as “(6.2x)” and the IC50 (Md hmg AChE; [6]) is listed as 6000 nM. The “IC50 ratio (hAChE/Ag ace-1S)” value (Ag ace-1S [2]) was “(17x)”, the IC50 (Ag ace-1S [1]) was 1040 nM and the IC50 (hAChE) was 17400 nM. The “Live Mosquito Contact Toxicity MC for 100% lethality at 24 hr” value (Anopheles gambiae) was 56 ug/cm^2.
For `CNC(=O)Oc1cc(C(C)(C)C)cc(C(C)(C)C)c1` [Compound 11a], the IC50 (Ag hmg AChE; [7]) is listed as 5320 nM, the “IC50 ratio (hAChE/Ag hmg)” value (Ag hmg AChE) is listed as “(1.0x)” and the IC50 (Md hmg AChE; [6]) is listed as 78 nM. The “IC50 ratio (hAChE/Ag ace-1S)” value (Ag ace-1S [2]) was “(2.1x)”, the IC50 (Ag ace-1S [1]) was 2470 nM and the IC50 (hAChE) was 5170 nM. For the same molecule, the “lethality at 24 h” value (Anopheles gambiae; at 11 ug/cm^2, 1 hr exposure) was “None at 11”.
In the case of `CNC(=O)ON=C(C)SC` [Methomyl, reference compound], the IC50 (Ag hmg AChE; [3]) is reported as 716 nM, the “IC50 ratio (hAChE/Ag hmg)” value (Ag hmg AChE) is reported as “(0.87x)” and the “IC50 ratio (hAChE/Ag ace-1S)” value (Ag ace-1S [2]) is reported as “(0.36x)”. For the same molecule, the IC50 (Ag ace-1S [1]) was 1760 nM, the IC50 (hAChE; [5]) was 626 nM and the “Live Mosquito Contact Toxicity MC for 100% lethality at 24 hr” value (Anopheles gambiae) was 2.7 ug/cm^2.
In the case of `CNC(=O)Oc1ccccc1OC(C)C` [Propoxur, reference compound], the IC50 (Ag hmg AChE; [7]) is given as 371 nM, the “IC50 ratio (hAChE/Ag hmg)” value (Ag hmg AChE) is given as “(1.2x)” and the IC50 (Md hmg AChE; [6]) is given as 670 nM. The “IC50 ratio (hAChE/Ag ace-1S)” value (Ag ace-1S [2]) was “(2.1x)”, the IC50 (Ag ace-1S [1]) was 213 nM and the IC50 (hAChE) was 444 nM. For the same molecule, the “Live Mosquito Contact Toxicity MC for 100% lethality at 24 hr” value (Anopheles gambiae) was 1.1 ug/cm^2.

Source: patent US8618162B2 (priority 2007, dated 2013)
